Results reported in ChEMBL document CHEMBL4052779, “Isosorbide-based peptidomimetics as inhibitors of hepatitis C virus serine protease” (Bioorg Med Chem Lett, 2017).

Legend:
[1] = tested on: Hepacivirus hominis; test: Inhibition of recombinant HCV NS3/4A protease at 100 uM pre-incubated for 10 mins followed by 5-FAM/QXL520 substrate addition and measured after 60 mins by FRET analysis relative to control
[2] = Solubility of the compound in aqueous buffer; type: physicochemical
[3] = tested on: Hepacivirus hominis; test: Inhibition of recombinant HCV NS3/4A protease V170A mutant assessed as residual enzyme activity at 100 uM pre-incubated for 10 mins followed by 5-FAM/QXL520 substrate addition and measured after 60 mins by FRET analysis relative to control
[4] = tested on: Hepacivirus hominis; test: Inhibition of recombinant wild type HCV NS3/4A protease assessed as residual enzyme activity at 100 uM pre-incubated for 10 mins followed by 5-FAM/QXL520 substrate addition and measured after 60 mins by FRET analysis relative to control
[5] = Inhibition of recombinant HCV NS3/4A protease pre-incubated for 10 mins followed by 5-FAM/QXL520 substrate addition and measured after 60 mins by FRET analysis relative to control; parameters: species or system Hepacivirus hominis
[6] = tested on: Hepatitis C virus serine protease, NS3/NS4A (Hepatitis C virus), D2K2A8+A3EZI9 [D168A]; test: Inhibition of recombinant HCV NS3/4A protease D168A mutant assessed as residual enzyme activity at 100 uM pre-incubated for 10 mins followed by 5-FAM/QXL520 substrate addition and measured after 60 mins by FRET analysis relative to control; conditions: Hepacivirus hominis

Compound	inhibition [1]	solubility [2]	also measured
O=C(N[C@H]1CO[C@H]2[C@@H]1OC[C@@H]2OCc1ccccc1)/C(=C/c1cc2ccccc2s1)NC(=O)c1ccccc1	30.3%	Soluble	
CC(C)(C)OC(=O)N[C@@H](Cc1c[nH]c2ccccc12)C(=O)N[C@H]1CO[C@H]2[C@@H]1OC[C@@H]2OCc1ccccc1		Insoluble	
O=C(N[C@@H]1CO[C@H]2[C@@H]1OC[C@H]2OCc1ccccc1)/C(=C/c1cccs1)NC(=O)c1ccccc1	45%	Insoluble	
O=C(N[C@H]1CO[C@H]2[C@@H]1OC[C@@H]2OCc1ccccc1)/C(=C/c1ccco1)NC(=O)c1ccccc1	81.8%	Soluble	Activity [3]: 6.7%; Activity [4]: 18.2%; IC50 [5]: 36 µM; Activity [6]: 36.7%
COc1ccc(CO[C@H]2CO[C@H]3[C@@H]2OC[C@@H]3NC(=O)/C(=C/c2cccs2)NC(=O)c2ccccc2)cc1		Insoluble	
C[C@@H](O)[C@H](NC(=O)OC(C)(C)C)C(=O)N[C@H]1CO[C@H]2[C@@H]1OC[C@@H]2OCc1ccccc1		Insoluble	
CC(C)(C)OC(=O)N[C@@H](CCCN/C(=N\C(=O)OCc1ccccc1)NC(=O)OCc1ccccc1)C(=O)N[C@H]1CO[C@H]2[C@@H]1OC[C@@H]2OCc1ccccc1		Insoluble	
CC(C)(C)OC(=O)N1CCC[C@H]1C(=O)N[C@H]1CO[C@H]2[C@@H]1OC[C@@H]2OCc1ccccc1		Insoluble	
